Key:
C5 [1] = target: T1, C5 (Homo sapiens, UniProt P01031); test: Human hemolysis assay (RBC lysis assay using complete human sera); assay type: cell-based; design: with complete human sera (Complement Technology, Tyler Tex.) and polypeptides; tissue Complement Technology, Tyler Tex; host or cells: complete human serum; settings: inhibition of lysis of antibody-sensitized sheep erythrocytes, complete human sera
C5 [2] = target: T1, C5; test: Fluorescence polarization saturation binding of probe R3076 to C5; design: purchased Complement Technology, Tyler, Tex; settings: read-out: equilibrium dissociation constant (KD)
Procedure: FP was used for screening competitive polypeptide inhibitors of the C5 protein. […] The BODIPY-TMR dye attached to the C-terminal lysine of the protein and the subsequent labeled probe was purified by HPLC.
Polarization was measured over time, until binding reached equilibrium. KD was determined using Graphpad Prism (using “Saturating Binding Curves, One Site—Specific Binding With Hill Slope” as the curve fit to determine KD). […] Based on this information, 25 nM and 50 nM concentrations for R3076 (SEQ ID NO: 40) and C5 protein, respectively, were chosen for use in the competition assay. These concentrations represented the approximate level of protein necessary for 95% probe binding to C5 protein.

in vivo = settings: male, cynomolgus monkey, iv, 3 mg/kg
primate C5 protein [3] = test: Ex vivo hemolysis assay on plasma samples from the cynomolgus PK study; assay type: in vivo, cynomolgus monkey
From the text: Also shown are changes in hemolytic activity (squares) at the same time points.

[4] = Pharmacokinetic studies in rat (IV and SC); settings: male rats, SC 30 mg/kg, combined plasma concentrations of R3152 and R3201
Procedure: Left: Male Sprague-Dawley rats (n=3) were injected intravenously at a single 2 mg/kg dose. Blood samples were collected at indicated time points, processed into plasma, and analyzed for the indicated compound by LC-MS. […] […] Blood samples were collected at indicated time points, processed into plasma, and analyzed for the indicated compound by LC-MS.
Blood samples were collected at indicated time points, processed into plasma, and analyzed for the indicated compound by LC-MS. […] Blood samples were collected at indicated time points, processed into plasma, and analyzed for the indicated compound by LC-MS.

rat C5 = target: T2, rat C5 (Rattus norvegicus, UniProt P08650); test: Ex vivo hemolysis assays in the rat study
T2 construct: from tissue; host or cells: plasma of dosed male rats

[5] = cynomolgus monkey, single 3 mg/kg IV
primate C5 protein [6] = test: Hemolysis assay with exogenous compound added to normal cynomolgus plasma; assay type: cell-based, cynomolgus monkey

T2 sequence (P08650 19-1681): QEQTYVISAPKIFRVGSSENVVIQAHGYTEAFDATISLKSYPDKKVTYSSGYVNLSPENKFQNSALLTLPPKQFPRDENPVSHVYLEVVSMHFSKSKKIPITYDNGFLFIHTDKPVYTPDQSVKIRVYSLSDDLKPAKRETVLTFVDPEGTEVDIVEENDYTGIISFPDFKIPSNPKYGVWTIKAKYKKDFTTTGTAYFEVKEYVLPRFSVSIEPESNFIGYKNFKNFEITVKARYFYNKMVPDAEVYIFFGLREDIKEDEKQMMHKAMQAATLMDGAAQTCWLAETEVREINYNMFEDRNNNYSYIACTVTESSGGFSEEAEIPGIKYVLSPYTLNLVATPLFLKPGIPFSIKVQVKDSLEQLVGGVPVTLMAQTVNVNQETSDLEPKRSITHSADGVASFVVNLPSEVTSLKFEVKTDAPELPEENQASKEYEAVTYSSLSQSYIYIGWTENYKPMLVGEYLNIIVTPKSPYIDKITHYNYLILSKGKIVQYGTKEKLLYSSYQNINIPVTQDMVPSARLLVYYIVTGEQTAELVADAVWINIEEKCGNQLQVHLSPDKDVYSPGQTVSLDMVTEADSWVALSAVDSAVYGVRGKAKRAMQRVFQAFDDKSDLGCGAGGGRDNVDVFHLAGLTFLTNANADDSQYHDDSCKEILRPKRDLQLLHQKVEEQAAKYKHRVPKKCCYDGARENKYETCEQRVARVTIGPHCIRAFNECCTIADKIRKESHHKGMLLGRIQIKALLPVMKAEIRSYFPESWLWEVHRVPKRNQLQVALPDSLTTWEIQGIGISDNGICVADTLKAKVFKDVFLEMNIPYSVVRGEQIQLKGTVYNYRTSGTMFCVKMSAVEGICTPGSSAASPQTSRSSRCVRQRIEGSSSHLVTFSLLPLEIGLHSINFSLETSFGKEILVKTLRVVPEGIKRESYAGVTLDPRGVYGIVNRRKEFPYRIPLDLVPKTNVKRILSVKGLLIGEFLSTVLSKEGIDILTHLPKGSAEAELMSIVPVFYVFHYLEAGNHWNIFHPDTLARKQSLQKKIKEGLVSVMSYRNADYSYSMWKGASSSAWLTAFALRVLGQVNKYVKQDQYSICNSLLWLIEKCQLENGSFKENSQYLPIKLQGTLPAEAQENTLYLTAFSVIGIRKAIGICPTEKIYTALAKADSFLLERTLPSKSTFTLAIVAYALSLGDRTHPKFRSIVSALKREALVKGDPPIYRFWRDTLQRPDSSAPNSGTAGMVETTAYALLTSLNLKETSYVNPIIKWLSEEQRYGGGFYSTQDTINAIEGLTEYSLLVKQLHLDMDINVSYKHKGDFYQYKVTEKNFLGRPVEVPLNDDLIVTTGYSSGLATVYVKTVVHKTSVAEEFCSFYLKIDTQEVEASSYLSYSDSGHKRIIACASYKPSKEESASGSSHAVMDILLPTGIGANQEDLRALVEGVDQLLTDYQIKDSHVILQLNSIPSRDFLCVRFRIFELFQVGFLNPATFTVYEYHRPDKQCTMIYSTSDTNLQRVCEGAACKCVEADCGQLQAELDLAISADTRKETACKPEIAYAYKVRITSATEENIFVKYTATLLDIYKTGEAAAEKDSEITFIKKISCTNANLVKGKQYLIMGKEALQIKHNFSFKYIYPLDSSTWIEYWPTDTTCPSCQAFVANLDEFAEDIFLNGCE
T1 sequence (P01031 19-1676): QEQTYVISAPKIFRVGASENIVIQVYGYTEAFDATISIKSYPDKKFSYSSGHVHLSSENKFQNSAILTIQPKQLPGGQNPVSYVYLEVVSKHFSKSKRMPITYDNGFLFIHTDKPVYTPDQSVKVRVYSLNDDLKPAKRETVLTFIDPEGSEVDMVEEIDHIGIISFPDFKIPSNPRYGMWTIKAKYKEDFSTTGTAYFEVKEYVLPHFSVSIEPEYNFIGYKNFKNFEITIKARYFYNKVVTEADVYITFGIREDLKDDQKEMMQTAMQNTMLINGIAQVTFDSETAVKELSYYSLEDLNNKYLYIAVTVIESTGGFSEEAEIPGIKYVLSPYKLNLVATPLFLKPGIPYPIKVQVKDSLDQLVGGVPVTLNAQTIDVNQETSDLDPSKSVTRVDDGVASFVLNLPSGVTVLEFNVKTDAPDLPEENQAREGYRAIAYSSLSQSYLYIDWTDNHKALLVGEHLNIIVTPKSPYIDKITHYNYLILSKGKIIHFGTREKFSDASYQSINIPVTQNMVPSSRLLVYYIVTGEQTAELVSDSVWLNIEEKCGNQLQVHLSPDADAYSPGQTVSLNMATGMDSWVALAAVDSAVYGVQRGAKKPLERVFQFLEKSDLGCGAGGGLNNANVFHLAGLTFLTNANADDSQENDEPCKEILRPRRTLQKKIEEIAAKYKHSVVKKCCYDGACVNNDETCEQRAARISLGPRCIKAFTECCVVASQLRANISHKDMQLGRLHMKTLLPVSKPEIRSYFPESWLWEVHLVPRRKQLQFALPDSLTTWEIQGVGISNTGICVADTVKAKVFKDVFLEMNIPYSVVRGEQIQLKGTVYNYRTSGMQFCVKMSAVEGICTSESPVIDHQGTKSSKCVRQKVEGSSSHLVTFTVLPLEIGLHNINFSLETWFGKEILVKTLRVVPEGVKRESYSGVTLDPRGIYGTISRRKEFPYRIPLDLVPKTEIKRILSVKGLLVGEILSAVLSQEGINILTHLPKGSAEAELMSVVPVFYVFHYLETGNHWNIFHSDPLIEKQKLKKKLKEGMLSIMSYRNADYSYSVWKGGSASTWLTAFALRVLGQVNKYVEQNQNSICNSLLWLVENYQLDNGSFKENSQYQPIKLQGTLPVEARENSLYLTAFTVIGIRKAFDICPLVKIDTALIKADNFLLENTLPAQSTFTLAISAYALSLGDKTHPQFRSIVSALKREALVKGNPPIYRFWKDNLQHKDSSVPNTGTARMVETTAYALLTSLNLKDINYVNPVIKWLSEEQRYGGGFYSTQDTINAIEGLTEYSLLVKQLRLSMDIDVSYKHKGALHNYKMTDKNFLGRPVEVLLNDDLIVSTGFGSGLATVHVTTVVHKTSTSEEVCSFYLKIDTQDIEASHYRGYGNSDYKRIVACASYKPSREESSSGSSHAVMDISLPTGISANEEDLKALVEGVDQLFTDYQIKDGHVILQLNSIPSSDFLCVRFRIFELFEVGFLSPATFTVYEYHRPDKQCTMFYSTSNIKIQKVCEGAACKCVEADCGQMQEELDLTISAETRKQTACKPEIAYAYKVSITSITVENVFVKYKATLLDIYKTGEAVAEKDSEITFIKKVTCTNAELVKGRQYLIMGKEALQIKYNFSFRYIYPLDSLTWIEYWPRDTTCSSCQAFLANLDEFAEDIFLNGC

Row | SMILES | IC50 (C5 [1]) | Kd (C5 [2]) | AUC(0-inf) (in vivo) | Vd (in vivo) | clearance (in vivo) | half-life (in vivo) | level at 48 h (in vivo) | binding to primate C5 protein (in words) (primate C5 protein [3]; cynomolgus monkey, in vivo) | time after dosing at which hemolytic activity returned to normal levels (primate C5 protein [3]; cynomolgus monkey, single 3 mg/kg IV) | plasma concentration with clear inhibition of complement-mediated hemolysis (primate C5 protein [3]; cynomolgus plasma diluted 1:100, activated sheep red blood cells) | bioavailability of dose, based on AUC [4] | inhibitory activity in ex vivo hemolysis assays (in words) (rat C5) | binding to rat C5 (in words) (rat C5; in vivo) | initial distribution phase [5] | time for which plasma drug levels were detectable [5] | IC50 (primate C5 protein [6])
1 | CCC[C@H](NC(C)=O)C(=O)N[C@@H](CCC)C(=O)N[C@@H](Cc1ccc(O)cc1)C(=O)N[C@@H](CCC(=O)O)C(=O)N[C@@H](CC(N)=O)C(=O)N[C@H](C(=O)N[C@@H](Cc1ccc(O)cc1)C(=O)N[C@@H](Cc1c[nH]c2ncccc12)C(=O)N[C@@H](CCC(=O)O)C(=O)N[C@@H](Cc1ccc(O)cc1)C(=O)N1CCC[C@H]1C(=O)N[C@H](C(=O)N[C@@H](CCC)C(=O)N[C@@H](CCCCNC(=O)CCCCCNC(=O)CCC1=C(C)C2=Cc3ccc(-c4ccc(OC)cc4)n3[B-](F)(F)[N+]2=C1C)C(N)=O)C1CCCCC1)C(C)(C)C [Compound R3076, Ac-Nvl-Nvl-Y-E-N-Tbg-Y-azaTrp-E-Y-P-Chg-Nvl-K-(BODIPY-TMR-X) NH2] | 297 nM | 8.07 nM |  |  |  |  |  |  |  |  |  |  |  |  |  | 
2 | CCC[C@H](NC(=O)[C@@H](NC(=O)[C@@H]1CCCN1C(=O)[C@H](Cc1ccc(O)cc1)NC(=O)[C@H](CCC(=O)O)NC(=O)[C@H](Cc1c[nH]c2ncccc12)NC(=O)[C@H](Cc1ccc(O)cc1)NC(=O)[C@@H](NC(=O)[C@H](CC(=O)O)NC(=O)[C@@H]1CSCc2cccc(c2)CSC[C@H](NC(C)=O)C(=O)N[C@@H](C(C)C)C(=O)N[C@@H](CCC(=O)O)C(=O)N[C@@H](CCCNC(=N)N)C(=O)N[C@@H](Cc2ccccc2)C(=O)N1)C(C)(C)C)C1CCCCC1)C(N)=O [Compound R3152, [mXylyl(1,6)]Ac-C-V-E-R-F-C-D-Tbg-Y-azaTrp-E-Y-P-Chg-Nvl-NH2] |  |  | 23300 ± 2120 ng·h/mL | 1.49 ± 0.152 L/kg | 2.15 mL/min/kg | 10.9 ± 0.8 h | < 100 ng/mL | binds with high affinity | 48 h | > 200 ng/mL | approximately 65% | very little inhibitory activity | do not bind | < 1 h | up to 48 hours | 2 to 20 ng/mL
